Activity calls are given as the source filed them.
Tests used:
[1] = target: FAD-linked sulfhydryl oxidase ALR (Homo sapiens, UniProt P55789); experiment: ALR-catalysed DTT oxidation blockers – biochemical, H2O2 detection, luminescence, cherry-pick, dose response (AID 493248)
Cytochrome P450 2C19 = Cytochrome P450 2C19 (Homo sapiens, UniProt P33261); experiment: Cytochrome panel assay with activity outcomes. Panel member name: p450-cyp2c19 Compounds with AC50 equal or less than 10 uM are considered active; format: functional
Cytochrome P450 2D6 = Cytochrome P450 2D6 (Homo sapiens, UniProt P10635);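 further: CYP2D6 member of a cytochrome P450 panel assay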
[2] = viability of uninfected HEp-2 cells – cell-based, HTS, cytotoxicity control for RSV inhibitor project, dose response (AID 2410); format: functional; details: human respiratory syncytial virus
cells [3] = format: functional
[4] = Trypanosoma cruzi growth suppression in host cells – NIH3T3 host cells, beta-gal luminescence, confirmation (AID 2044); format: functional, cell-based;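 further: intracellular parasites grown in NIH/3T3 mouse fibroblasts as host cells; luminescent beta-galactosidase reporter signal from transgenic T. cruzi replicating inside host cells; inhibitors lower the luminescence signal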
[5] = NIH3T3 cell viability loss – ATP luminescence, mouse fibroblasts, counter-screen, dose response (AID 2010); format: functional, cell-based;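 further: cells exposed to compound for about 90 hours before reading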
[6] = Luminescence Cell-Based Dose Retest to Confirm Inhibitors of Cancer Stem Cells. [Related pubchem assays (depositor defined):AID2717, AID2721]; format: functional; details: Homo sapiens
[7] = reduction of Shn3 3'UTR-driven luciferase in osteoblasts – cell-based, Clone20 osteoblasts, firefly luciferase, cherry-picked, dose response (AID 624132); format: functional;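 further: firefly luciferase luminescence from reporter carrying the Shn3 3'UTR in osteoblasts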
[8] = loss of viability in HepG2 cells – cell-based, CellTiter-Glo, cherry-picked, cytotoxicity control for Shn3 inhibitor project, dose response (AID 624134); format: functional
[9] = non-specific 3'UTR reporter inhibition in Clone20-Shn3RL – cell-based, Renilla luciferase, cherry-picked, counter-screen for Shn3 inhibitor project, dose response (AID 624133); format: functional
Cytochrome P450 1A2 = target: T1, Cytochrome P450 1A2 (Homo sapiens, UniProt P05177);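 further: PubChem cytochrome P450 panel assay, CYP1A2 panel member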
T1 sequence (P05177 whole entry): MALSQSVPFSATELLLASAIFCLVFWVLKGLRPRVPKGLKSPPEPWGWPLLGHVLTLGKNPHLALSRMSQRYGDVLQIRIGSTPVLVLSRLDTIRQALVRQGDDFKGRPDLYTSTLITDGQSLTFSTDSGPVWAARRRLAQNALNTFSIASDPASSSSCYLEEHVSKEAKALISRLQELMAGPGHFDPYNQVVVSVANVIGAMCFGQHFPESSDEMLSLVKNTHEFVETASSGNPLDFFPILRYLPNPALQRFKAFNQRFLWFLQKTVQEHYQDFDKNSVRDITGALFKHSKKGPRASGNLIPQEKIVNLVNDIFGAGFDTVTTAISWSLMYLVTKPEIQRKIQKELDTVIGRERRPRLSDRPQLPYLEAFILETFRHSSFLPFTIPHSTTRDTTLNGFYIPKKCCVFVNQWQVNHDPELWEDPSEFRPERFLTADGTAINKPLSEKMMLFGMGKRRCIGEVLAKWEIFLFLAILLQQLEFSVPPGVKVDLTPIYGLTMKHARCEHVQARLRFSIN

Cytochrome P450 3A4 = Cytochrome P450 3A4 (Homo sapiens, UniProt P08684);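 further: CYP3A4 tested as one member of a cytochrome P450 panel screen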
[10] = target: T2, Polyadenylate-binding protein 1 (Homo sapiens, UniProt P11940); experiment: MLLE binding blockers, Cy5 peptide tracer – biochemical, fluorescence polarization, Cy5-PAM2 peptide, secondary, miRNA deadenylation inhibitor project, dose response (AID 602260); format: functional; details: read-out: IC50_Mean
[11] = target: T2, Polyadenylate-binding protein 1; experiment: MLLE domain peptide-binding blockers, IC50 – biochemical, fluorescence polarization, FITC-PAM2 peptide, dose response (AID 602259); format: functional; details: read-out: IC50_Mean
[12] = target: Luciferin 4-monooxygenase (Photinus pyralis, UniProt P08659); experiment: inhibition of purified Photinus pyralis luciferase – biochemical, luminescence, dose response (AID 1891)
[13] = Luminescence Cell-Based Dose Confirmation HTS to Identify Inhibitors of Platelet Dense Granule Release. [Related pubchem assays: 1663 (Primary HTS), 1678 (Summary of Project)]; format: functional
[14] = viability of PTEN-deleted HCT116 cells – cell-based, HCT116 PTEN knockout, dose response (AID 1047); format: functional;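 further: HCT116 colon tumor cells with PTEN knocked out; cells exposed to compound for 60 hours before readout; potency for loss of cell viability measured by luminescence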
[15] = viability of HCT116 lacking mutant beta-catenin – cell-based, human colon tumor, dose response (AID 1045); format: functional;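 further: HCT116 colon tumor cells with beta catenin knocked out; cells exposed to compound for 60 hours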
Cytochrome P450 2C9 = Cytochrome P450 2C9 (Homo sapiens, UniProt P11712)
H4 = experiment: Luminescence Cell-Based Dose Response HTS to Identify Activators of 5'UTR Stem-Loop Driven Prion Protein mRNA Translation in H4 Neuroglioblastoma Cells. [Related pubchem assays: 1829 (Project Summary), 1814 (Primary HTS)]; format: functional; details: Homo sapiens
[16] = target: T3, Heat shock factor protein 1 (Mus musculus, UniProt P38532); experiment: decrease of HSF1-responsive luciferase luminescence – cell-based, NIH3T3, dose retest, confirmation (AID 2382); format: functional;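 further: NIH3T3 fibroblasts with HSF1-driven luciferase reporter stressed by proteasome inhibitor MG132; luminescence from HSF1-driven luciferase expression after 8 hours of MG132 stress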
T3 sequence (P38532 whole entry): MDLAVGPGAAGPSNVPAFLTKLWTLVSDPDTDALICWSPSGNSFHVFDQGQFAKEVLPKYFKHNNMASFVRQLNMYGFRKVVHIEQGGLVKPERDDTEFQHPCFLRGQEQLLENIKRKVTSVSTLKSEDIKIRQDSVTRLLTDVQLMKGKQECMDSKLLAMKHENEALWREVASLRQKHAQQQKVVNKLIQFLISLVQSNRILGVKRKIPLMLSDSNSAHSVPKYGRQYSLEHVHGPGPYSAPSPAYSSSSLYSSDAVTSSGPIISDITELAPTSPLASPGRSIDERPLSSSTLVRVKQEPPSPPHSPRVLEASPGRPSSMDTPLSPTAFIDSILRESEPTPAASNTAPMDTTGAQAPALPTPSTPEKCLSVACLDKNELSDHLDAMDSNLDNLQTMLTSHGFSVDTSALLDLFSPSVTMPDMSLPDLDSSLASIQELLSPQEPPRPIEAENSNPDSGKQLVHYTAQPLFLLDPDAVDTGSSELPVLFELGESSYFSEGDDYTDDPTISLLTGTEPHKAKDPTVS

cells [17] = format: functional, cell-based
cells [18] = format: functional, cell-based; remark: listed apart in the source

T2 sequence (P11940 whole entry, the tested form may be a part): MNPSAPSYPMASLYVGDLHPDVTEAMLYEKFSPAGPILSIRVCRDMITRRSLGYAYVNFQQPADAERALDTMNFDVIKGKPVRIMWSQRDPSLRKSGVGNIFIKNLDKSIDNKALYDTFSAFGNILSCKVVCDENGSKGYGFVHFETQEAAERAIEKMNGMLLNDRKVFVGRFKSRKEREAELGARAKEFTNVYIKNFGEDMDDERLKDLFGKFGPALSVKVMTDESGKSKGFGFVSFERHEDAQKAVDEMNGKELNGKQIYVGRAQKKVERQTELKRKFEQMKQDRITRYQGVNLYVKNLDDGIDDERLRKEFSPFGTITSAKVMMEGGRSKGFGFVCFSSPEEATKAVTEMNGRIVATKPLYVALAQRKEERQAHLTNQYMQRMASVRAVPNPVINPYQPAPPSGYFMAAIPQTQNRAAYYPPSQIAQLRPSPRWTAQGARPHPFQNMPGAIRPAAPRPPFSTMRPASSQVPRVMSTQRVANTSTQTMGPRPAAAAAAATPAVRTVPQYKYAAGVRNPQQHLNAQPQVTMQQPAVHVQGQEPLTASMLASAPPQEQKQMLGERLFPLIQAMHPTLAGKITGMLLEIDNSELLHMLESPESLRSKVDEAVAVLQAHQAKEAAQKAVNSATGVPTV
Chain of FAD-linked sulfhydryl oxidase ALR (P55789 whole entry): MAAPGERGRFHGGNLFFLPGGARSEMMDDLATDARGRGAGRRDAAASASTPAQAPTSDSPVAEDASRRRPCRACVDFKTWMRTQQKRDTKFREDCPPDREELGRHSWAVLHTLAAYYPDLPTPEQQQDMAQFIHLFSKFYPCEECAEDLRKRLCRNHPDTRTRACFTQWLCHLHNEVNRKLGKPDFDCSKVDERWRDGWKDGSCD
Chain of Cytochrome P450 2D6 (P10635 whole entry): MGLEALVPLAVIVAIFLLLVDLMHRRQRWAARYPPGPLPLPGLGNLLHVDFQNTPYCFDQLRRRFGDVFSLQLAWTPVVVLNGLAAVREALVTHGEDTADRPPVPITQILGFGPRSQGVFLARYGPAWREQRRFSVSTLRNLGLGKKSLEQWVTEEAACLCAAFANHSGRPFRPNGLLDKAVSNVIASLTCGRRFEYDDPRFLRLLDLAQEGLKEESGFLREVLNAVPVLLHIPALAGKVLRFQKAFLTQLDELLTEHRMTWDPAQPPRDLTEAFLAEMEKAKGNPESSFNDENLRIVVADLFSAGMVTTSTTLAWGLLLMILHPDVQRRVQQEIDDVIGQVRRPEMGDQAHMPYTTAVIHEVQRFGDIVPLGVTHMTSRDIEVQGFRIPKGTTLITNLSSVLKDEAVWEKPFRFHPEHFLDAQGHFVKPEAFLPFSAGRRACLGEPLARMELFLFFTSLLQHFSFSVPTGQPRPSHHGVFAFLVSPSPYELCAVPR
Chain of Cytochrome P450 2C19 (P33261 whole entry): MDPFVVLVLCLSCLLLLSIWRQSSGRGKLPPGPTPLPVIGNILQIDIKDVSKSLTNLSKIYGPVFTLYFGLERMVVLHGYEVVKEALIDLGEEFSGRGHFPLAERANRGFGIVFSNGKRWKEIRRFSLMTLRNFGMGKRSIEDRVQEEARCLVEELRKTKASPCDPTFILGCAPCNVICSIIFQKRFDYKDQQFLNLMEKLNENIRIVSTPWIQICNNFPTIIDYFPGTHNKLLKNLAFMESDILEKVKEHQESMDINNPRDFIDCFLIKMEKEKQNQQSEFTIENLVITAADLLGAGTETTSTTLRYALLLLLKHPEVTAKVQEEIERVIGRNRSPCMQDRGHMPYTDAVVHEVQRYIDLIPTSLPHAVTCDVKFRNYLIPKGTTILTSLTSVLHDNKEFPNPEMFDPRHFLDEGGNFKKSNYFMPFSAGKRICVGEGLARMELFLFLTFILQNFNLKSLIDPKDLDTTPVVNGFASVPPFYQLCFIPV
Chain of Cytochrome P450 3A4 (P08684 whole entry): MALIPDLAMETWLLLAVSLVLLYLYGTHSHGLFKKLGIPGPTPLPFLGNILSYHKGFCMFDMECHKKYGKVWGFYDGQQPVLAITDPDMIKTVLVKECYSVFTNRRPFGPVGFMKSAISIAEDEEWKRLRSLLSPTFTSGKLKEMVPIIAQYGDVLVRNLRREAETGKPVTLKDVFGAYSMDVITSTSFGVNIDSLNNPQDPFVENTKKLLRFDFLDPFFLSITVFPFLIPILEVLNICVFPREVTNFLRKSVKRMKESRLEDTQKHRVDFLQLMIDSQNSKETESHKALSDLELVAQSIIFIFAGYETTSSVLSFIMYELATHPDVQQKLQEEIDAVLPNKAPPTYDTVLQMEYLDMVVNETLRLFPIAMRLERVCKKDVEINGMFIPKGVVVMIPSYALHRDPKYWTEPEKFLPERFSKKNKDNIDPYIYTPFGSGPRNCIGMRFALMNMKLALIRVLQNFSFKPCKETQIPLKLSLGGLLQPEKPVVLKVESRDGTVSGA
Chain of Cytochrome P450 2C9 (P11712 whole entry): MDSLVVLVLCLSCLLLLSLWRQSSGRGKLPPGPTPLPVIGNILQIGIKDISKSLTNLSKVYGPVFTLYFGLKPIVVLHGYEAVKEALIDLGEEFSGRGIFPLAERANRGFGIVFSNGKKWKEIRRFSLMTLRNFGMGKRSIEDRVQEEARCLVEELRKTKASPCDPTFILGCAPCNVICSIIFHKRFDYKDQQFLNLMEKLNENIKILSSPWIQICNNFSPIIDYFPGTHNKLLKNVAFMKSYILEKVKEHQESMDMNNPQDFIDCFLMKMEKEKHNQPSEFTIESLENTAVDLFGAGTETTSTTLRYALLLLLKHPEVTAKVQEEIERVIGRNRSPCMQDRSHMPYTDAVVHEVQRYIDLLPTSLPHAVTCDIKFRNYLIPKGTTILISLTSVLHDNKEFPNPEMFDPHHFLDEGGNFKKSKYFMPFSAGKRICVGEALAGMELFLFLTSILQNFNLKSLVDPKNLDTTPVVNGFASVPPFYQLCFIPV
Chain of Luciferin 4-monooxygenase (P08659 whole entry): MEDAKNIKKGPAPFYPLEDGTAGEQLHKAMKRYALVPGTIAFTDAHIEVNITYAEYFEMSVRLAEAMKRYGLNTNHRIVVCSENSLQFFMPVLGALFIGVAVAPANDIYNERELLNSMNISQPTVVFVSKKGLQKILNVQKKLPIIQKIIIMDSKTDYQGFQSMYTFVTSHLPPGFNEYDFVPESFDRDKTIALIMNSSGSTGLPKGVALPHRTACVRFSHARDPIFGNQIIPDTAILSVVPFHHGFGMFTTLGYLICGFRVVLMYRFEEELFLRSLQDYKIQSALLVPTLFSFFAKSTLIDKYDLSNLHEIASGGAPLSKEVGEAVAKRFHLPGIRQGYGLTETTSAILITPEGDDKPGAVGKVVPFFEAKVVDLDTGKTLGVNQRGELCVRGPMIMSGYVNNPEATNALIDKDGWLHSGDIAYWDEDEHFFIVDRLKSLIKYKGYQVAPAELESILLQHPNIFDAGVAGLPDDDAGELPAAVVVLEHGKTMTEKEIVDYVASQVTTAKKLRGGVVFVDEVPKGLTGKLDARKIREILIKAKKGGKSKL

Compound: O=P(CN1CCN(c2ccccc2)CC1)(N1CCCCC1)N1CCCCC1
- AC50 [1]: 0.656 µM (active)

Compound: COc1cccc(Nc2c(F)c(F)c(F)c(F)c2C(=O)O)c1
- AC50 [1]: 4.26 µM (active)

Compound: COc1ccc(C2c3c(ncn(CCN4CCOCC4)c3=N)Oc3ccc4ccccc4c32)cc1OC (centres undefined)
- AC50 (Cytochrome P450 2C19; read-out: AC50): 25.1 µM (inconclusive)
- AC50 (Cytochrome P450 2D6): 15.8 µM (inconclusive)

Compound: COc1cc2c(cc1NC(=O)CSc1nnnn1-c1ccccc1)oc1ccccc12
- CC50 [2]: 15.6 µM (active)

Compound: CC(C)=CCN1CCN(CCC2=C(C)CCCC2(C)C)CC1CCO (centres undefined)
- IC50 (cells [3]): 21.8 µM (active)

Compound: Cn1cc(C(=O)N2CCCC(Nc3ccc(F)cc3)C2)c2ccccc21 (centres undefined)
- AC50 [1]: 1.5 µM (active)

Compound: O=C(O)CC[P+](c1ccccc1)(c1ccccc1)c1ccccc1
- AC50 (Cytochrome P450 2C19): inconclusive
- AC50 (Cytochrome P450 2D6): 3.98 µM (inconclusive)

Compound: O=C(O)Cn1cc(C(=S)N2CCCCC2)c2ccccc21
- AC50 [1]: 0.407 µM (active)

Compound: COc1cccc(C2=CC(c3ccc(OC)c(OC)c3OC)n3nnnc3N2)c1 (centres undefined)
- CC50 [2]: 6.56 µM (active)

Compound: CC(=O)c1ccc(N2CCC(c3cc(-c4ccc(Cl)cc4)[nH]n3)CC2)c([N+](=O)[O-])c1
- EC50 [4]: 1.13 µM (active)
- EC50 [5]: > 60 µM (inconclusive)
- AC50 [6]: 2.39 µM (active)
- AC50 [7]: 5 µM (active)
- AC50 [8]: > 70 µM (inactive)
- AC50 [9]: 20 µM (active)
- AC50 (Cytochrome P450 1A2): 2.82 µM (inconclusive)
- AC50 (Cytochrome P450 3A4): 39.8 µM (inconclusive)

Compound: CC1CN=C(NC(=O)c2cccc([N+](=O)[O-])c2)S1 (centres undefined)
- IC50 [10]: > 66 µM (inactive)
- IC50 [11]: > 66 µM (inactive)

Compound: COc1ccc(NC(=O)c2nc3nc(C)cc(C(F)F)n3n2)cc1OC
- EC50 [12]: 18.9 µM (active)
- EC50 [13]: > 112 µM (not active)

Compound: O=[N+]([O-])c1ccc(CN2CCN(c3ccc(F)cc3)CC2)o1
- IC50 (cells [3]): < 0.1 µM (active)

Compound: Cc1ccc2c(c1)C(c1ccc([N+](=O)[O-])cc1)=NNC(c1ccc(Br)cc1)=N2
- CC50 [2]: 14.7 µM (active)

Compound: COc1ccc(S(=O)(=O)Cc2ccc(C(=O)N3CCN(c4ccc(Cl)cc4)CC3)o2)cc1
- EC50 [14]: 16.3 µM (active)
- EC50 [15]: 38.8 µM (active)
- AC50 [1]: 5.64 µM (active)

Compound: CCCn1c(N)c(C(=O)CSc2nc(C)cs2)c(=O)n(C)c1=O
- AC50 (Cytochrome P450 2D6): 20 µM (inconclusive)
- AC50 (Cytochrome P450 2C9): 28.2 µM (inconclusive)

Compound: Cc1ccc2c(CC(=O)N3CCc4ccccc43)coc2c1
- EC50 (H4): 18.5 µM (active)

Compound: CN(C)c1nc(-c2cn(CCC#N)c3ccccc23)cs1
- IC50 [10]: > 66 µM (inactive)
- IC50 [11]: 56.9 µM (inactive)

Compound: O=S(=O)(c1ccccc1)N1CCC2(CCCN(c3ccccc3)C2)CC1
- AC50 (Cytochrome P450 2D6): 10 µM (inconclusive)

Compound: CCc1nc2sc3ccccc3c(=O)c2c(=O)n1Cc1ccc(OC)cc1
- CC50 [2]: > 50 µM (active)
- EC50 [16]: > 195 µM (not active)

Compound: CC(C)CN(C(=O)COC(=O)c1ccc2c(c1)NC(=O)CS2)C1CCS(=O)(=O)C1 (centres undefined)
- IC50 [10]: > 66 µM (inactive)
- IC50 [11]: > 66 µM (inactive)

Compound: O=C(NCc1cccs1)C1CC(=O)N(C2CCCC2)C1 (centres undefined)
- EC50 (cells [17]): > 350 µM (not active)
- EC50 (cells [18]): > 350 µM (not active)

Compound: CCOC(=O)Cc1cnc(S)nc1O
- IC50 [10]: > 66 µM (inactive)
- IC50 [11]: > 66 µM (inactive)

Compound: COc1ccc2oc(C(=O)OCC(=O)Nc3ccccc3OC)c(C)c2c1
- EC50 (cells [17]): > 350 µM (not active)
- EC50 (cells [18]): 40.5 µM (active)

From ChEMBL document CHEMBL1201862, “PubChem BioAssay data set” (2004)
